Test results taken from US20200206212A1 (Celgene Corporation, priority 2018, published 2020).

What was measured:
[1] = format: physicochemical
Text: “Compound 1” or “API” in the Examples herein refers to polymorph Form C of 2-(4-chlorophenyl)-N-((2-(2,6-dioxopiperidin-3-yl)-1-oxoisoindolin-5-yl)methyl)-2,2-difluoroacetamide. […] Other forms of Compound 1, including Form A, Form B, Form D, Form F and amorphous form can be used in the formulations provided herein.

physchem = format: physicochemical; details: for solubility: organic solvent or mixture, thermodynamic from solid
Protocol: FA/AcOH mixtures ranging from 100% FA to 70%/30% FA/AcOH in decrements of 10% were used.
Solutions of FA/AcOH at ratios described in Table 39 were used. […] Samples were taken at each time point (4, 24, and 48 h) and assayed (36 total). Samples were spun down briefly (500 g, 4 min) to precipitate all solids and 25 μL of solution were taken for assay.

[2] = system: acute myeloid leukemia (AML) at relapse; details: administered alone; cited from earlier work

Molecule | Hygroscopicity [1] | Solid State Stability [1] | major degradation pathway [1] | Solution Stability ([1]; pH 5) | solubility across FA/AcOH mixtures (physchem) | solubility (physchem; 40 °C) [mg/mL] | solubility (physchem; 60 °C) [mg/mL] | response in treating acute myeloid leukemia (AML) at relapse [2]
O=C1CCC(N2Cc3cc(CNC(=O)C(F)(F)c4ccc(Cl)cc4)ccc3C2=O)C(=O)N1 (centres unmarked) [Compound 1, 2-(4-chlorophenyl)-N-((2-(2,6-dioxopiperidin-3-yl)-1-oxoisoindolin-5-yl)methyl)-2,2-difluoroacetamide] | Not hygroscopic | DS is physically stable under all storage conditions. | Hydrolysis | not stable in solution at pH of 5.0 or above | maximized in 100% FA | > 250 | > 250 | 
CT-011: anti-PD-1 antibody, a humanized antibody |  |  |  |  |  |  |  | failed to show response
